Measurements from patent US5635527A, “Carboxylic acid compound having condensed ring, salt thereof and pharmaceutical use thereof” (The Green Cross Corporation, priority 1994, dated 1997).

Tested on: human platelets
Assay: suppressive activity on ADP aggregation of human platelets
Assay type: cell-based
Settings: platelet rich plasma, ADP 1-5 μM, compound added 2 minutes before ADP, read-out: Suppression of platelet aggregation (IC50)
Method: Determination of suppressive activity on ADP aggregation of human platelets
Platelet rich plasma was prepared from the blood taken from healthy humans by centrifugation in the presence of 0.38% sodium citrate, and used for the determination.
Two minutes after the test compounds shown in Table 1 were added to the above-mentioned platelet rich plasma, ADP (adenosine-5'-diphosphate) (1-5 μM) having a concentration at which primary aggregation alone is observed was added, and the suppression of ADP aggregation by the compounds was evaluated. The percent suppression was determined by varying the concentration of the compounds and the concentration of the compound at which the aggregation was suppressed by 50% (IC50) was calculated, which was taken as the activity of the compound.

SMILES | IC50 [µM]
N=C(N)c1ccc2oc(C(=O)N[C@H]3CC[C@H](N(CC(=O)O)CC(=O)O)CC3)cc2c1 [Compound 204, trans-[4-[(5-Amidino-2-benzofuranyl)carbonylamino]cyclohexylamino]diacetic acid] | 0.009
CCOC(=O)CCN1CCC(NC(=O)c2cc3cc(C(=N)N)ccc3o2)CC1 [Compound 191, Ethyl 3-[4-[(5-amidino-2-benzofuranyl)carbonylamino]-piperidino]propionate] | 0.16
N=C(N)c1ccc2oc(C(=O)Nc3ccc(NCC(=O)O)cc3)cc2c1 [Compound 70, [4-[(5-Amidino-2-benzofuranyl)carbonylamino]anilino]acetic acid] | 0.15
N=C(N)c1ccc2oc(C(=O)N[C@H]3CC[C@H](OCC(=O)OCCO)CC3)cc2c1 [Compound 164, 2-Hydroxyethyl trans-[4-[(5-amidino-2-benzofuranyl)carbonylamino]cyclohexyloxy]acetate] | 0.18
N=C(N)c1ccc2oc(C(=O)NC3CCN(CCC(=O)O)CC3)cc2c1 [Compound 192, 3-[4-[(5-amidino-2-benzofuranyl)carbonylamino]piperidino]propionic acid] | 0.02
N=C(NCc1ccccc1)c1ccc2oc(C(=O)Nc3ccc(OCC(=O)O)cc3)cc2c1 [Compound 5, 4-[(5-Benzylamidino-2-benzofuranyl)carbonylamino]phenoxy-acetic acid] | 0.1
N=C(N)c1cnc2oc(C(=O)Nc3ccc(OCC(=O)O)cc3)cc2c1 [Compound 239, 4-(5-Amidinofuro[2,3-b]pyridine-2-carbonylamino)-phenoxyacetic acid] | 0.01
N=C(N)c1ccc2cc(C(=O)N[C@H]3CC[C@H](OCC(=O)O)CC3)[nH]c2c1 [Compound 212, trans-[4-[(6-Amidino-2-indolyl)carbonylamino]cyclohexyloxy]acetic acid] | 0.03
N=C(N)c1ccc2oc(C(=O)OC3CCC(OCC(=O)O)CC3)cc2c1 (stereo not shown) [Compound 152, [4-[(5-Amidino-2-benzofuranyl)carbonyloxy]cyclohexyloxy]acetic acid] | 0.08

The remaining compounds from weak to strong by IC50, led by results:

IC50 [µM] | SMILES
0.45 | N=C(N)c1ccc2oc(C(=O)N[C@H]3CC[C@H](CCC(=O)OCCO)CC3)cc2c1 [Compound 163, 2-Hydroxyethyl trans-3-[4-[(5-amidino-2-benzofuranyl)carbonylamino]cyclohexyl]propionate]
0.04 | Cc1c(C(=O)Nc2ccc(OCC(=O)O)cc2)oc2ccc(C(=N)N)cc12 [Compound 16, 4-[(5-Amidino-3-methyl-2-benzofuranyl)carbonylamino]phenoxyacetic acid]
0.03 | N=C(N)c1ccc2oc(C(=O)Nc3ccc(C[C@H](NC(=O)COC4CCNCC4)C(=O)O)cc3)cc2c1 [Compound 56, (S)-3-[4-[(5-Amidino-2-benzofuranyl)carbonylamino]phenyl]2-[(4-piperidinyloxy)acetylamino]propionic acid]
0.02 | N=C(N)c1ccc2cc(C(=O)N[C@H]3CC[C@H](OCC(=O)O)CC3)sc2c1 [Compound 232, trans-[4-[(6-Amidinobenzo[b]thien-2-yl)carbonylamino]cyclohexyloxy]acetic acid]
0.02 | N=C(N)c1cnc2oc(C(=O)N[C@H]3CC[C@H](OCC(=O)O)CC3)cc2c1 [Compound 255, trans-[4-(5-Amidinofuro[2,3-b]pyridine-2-carbonylamino)-cyclohexyloxy]acetic acid]
0.01 | CCCCS(=O)(=O)NC(Cc1ccc(NC(=O)c2cc3cc(C(=N)N)ccc3o2)cc1)C(=O)O (stereo not shown) [Compound 48, 3-[4-[(5-Amidino-2-benzofuranyl)carbonylamino]phenyl]-2-(n-butylsulfonylamino)propionic acid]
0.01 | N=C(N)c1cnc2oc(C(=O)N[C@H]3CC[C@H](CCC(=O)O)CC3)cc2c1 [Compound 261, trans-3-[4-(5-Amidinofuro[2,3-b]pyridine-2-carbonylamino)cyclohexyl]propionic acid]
